In patent publication EP0639376A1, “Liquid composition containing amide derivative” (TERUMO KABUSHIKI KAISHA, priority 1993, dated 1995):

Tests used:
Assay type in all cases: physicochemical
[1] = Test for solubility: dissolution of the compound observed with the naked eye; conditions: Table 5; 0.05 g compound, 1.0 g HCO-60, pH buffer
Procedure: To test the solubility of the above-mentioned compound, various experiments were carried out under different conditions in the presence or absence of a nonionic surfactant.
Formulation No. 1 was prepared by heating and dissolving 0.05 g of Compound (III) and 0.5 g of polyoxyethylene-hardened castor oil (HCO-60) in a beaker at about 60°C followed by gradually adding thereto lactic acid/sodium lactate buffer (pH 5.0) as the pH buffer while stirring to dissolve them.

[2] = Test for stability: percentage of compound remaining after storage at 60°C, measured by liquid chromatography; conditions: for remaining at 480 h: buffer with hco-60, Table 5, 0.05 g compound, 1.0 g HCO-60, pH buffer, 60°C, 20 days, read-out: Stability (as percentage of compound remained after stored at 60°C for 20 days)
Procedure: The difference in the stability of Compound (III) was tested, depending on the solubilizer added thereto. The stability was represented by the percentage (%) of the amount of Compound (III) remained after storage. Precisely, each sample formulation shown in Table 2 below was put in a glass tube with a screw cap and stored for 10 days and 20 days both at 60°C, whereupon the percentage of the amount of the compound remained after the storage was measured by liquid chromatography. From the value thus measured, the stability of the compound was evaluated.
Next, to examine the influence of the concentration of the solubilizer on the stability of Compound (III), experiments were carried out where the concentration of the nonionic surfactant to be added was stepwise increased while the concentration of Compound (III) was kept constant. Precisely, each sample formulation shown in Table 3 below was stored for 10 days and 20 days both at 60°C, whereupon the percentage (%) of the amount of Compound (III) remained after the storage was measured by liquid chromatography. On the basis of the thus-measured percentage, the stability of the compound was evaluated.

[3] = Mean particle size of formed micelles by light-scattering photometry; set-up: key: - : No micelle detected; conditions: Compound (III) 0.005 W/V %
From the text: It was confirmed that, when the concentration of Compound (III) was 0.005 W/V % and when the concentration of HCO-60 was 0.10 W/V % or more, micelles having a mean particle size of from 16 to 20 nm were formed.

[4] = Solubility of the compound in solvents (description of the substance)

## CCOC(=O)Oc1ccc(/C=C/C(=O)NCCN2CCC(OC(c3ccccc3)c3ccccc3)CC2)cc1OC [Compound (IV)]
[1]
  Solubility: Dissolved clear.
[2]
  remaining at 480 h: 91.2%

## CCOC(=O)Oc1ccc(/C=C/C(=O)NCCN2CCC(OC(c3ccccc3)c3ccccc3)CC2)cc1OC(=O)OCC [(VI)]
[1]
  Solubility: Dissolved clear.
[2]
  remaining at 480 h: 90.9%

## CCOC(=O)Oc1ccc(/C=C/C=C/C(=O)NCCN2CCC(OC(c3ccccc3)c3ccccc3)CC2)cc1OC(=O)OCC [(VII)]
[1]
  Solubility: Dissolved clear.
[2]
  remaining at 480 h: 92.6%

## CCOC(=O)Oc1ccc(/C=C/C=C/C(=O)NCCCN2CCN(C(c3ccccc3)c3ccccc3)CC2)cc1OC [Compound (V)]
[1]
  Solubility: Dissolved clear.
[2]
  remaining at 480 h: 92.1%

## CCOC(=O)Oc1ccc(/C=C/C=C/C(=O)NCCN2CCC(OC(c3ccccc3)c3ccccc3)CC2)cc1OC [Compound (III), 1-[{5'-(3''-methoxy-4''-ethoxycarbonyloxyphenyl)-2',4'-pentadienoyl}aminoethyl]-4-diphenylmethoxypiperidine]
[2]; result in words, from Table 3, HCO-60 0.10 W/V % or more
  stabilization of Compound (III): almost satisfactorily stabilized
[3]; HCO-60 0.05 W/V %
  Mean Particle Size: -
[3]; HCO-60 0.10 W/V %
  Mean Particle Size: 16.2 +/- 3.7 nm
[3]; HCO-60 0.25 W/V %
  Mean Particle Size: 19.6 +/- 4.3 nm
[3]; HCO-60 0.50 W/V %
  Mean Particle Size: 18.3 +/- 4.5 nm
[3]; HCO-60 1.00 W/V %
  Mean Particle Size: 18.8 +/- 4.2 nm
[4]
  solubility in acetone: easily soluble
  solubility in acetonitrile: soluble in acetonitrile to some degree
  solubility in dichloroethane: easily soluble
  solubility in ethanol: hardly soluble
  solubility in water: almost insoluble
